Test results reported in US6737383B1, “Herbicidal oxadiazolidines” (priority 1999, dated 2004).

What was measured:
wheat = assay: Test B pre/postemergence wheat; type: in vivo, Triticum aestivum; details: for Wheat plant response rating: scale of 0 to 10 where 0 is no effect and 10 is complete control
In short: (§1)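 Response is a visual 0-to-10 score relative to untreated plants, where 0 means no effect and 10 means complete control, taken twelve to sixteen days after application. Treatments went onto soil at planting and onto foliage of 1- to 4-leaf plants, using a surfactant-containing non-phytotoxic solvent.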

wild oat = assay: Test B pre/postemergence wild oat; type: in vivo, Avena fatua; details: for Wild oats plant response rating: scale of 0 to 10 where 0 is no effect and 10 is complete control
In short: as §1

blackgrass = assay: Test B pre/postemergence blackgrass; type: in vivo, Alopecurus myosuroides; details: for Blackgrass plant response rating: scale of 0 to 10 where 0 is no effect and 10 is complete control
In short: as §1

crabgrass = assay: Test B pre/postemergence crabgrass; type: in vivo, Digitaria sanguinalis; details: for Crabgrass plant response rating: scale of 0 to 10 where 0 is no effect and 10 is complete control
In short: as §1

morningglory = assay: Test B pre/postemergence morningglory; type: in vivo, Ipomoea hederacea; details: for Morningglory plant response rating: scale of 0 to 10 where 0 is no effect and 10 is complete control
In short: as §1

surinam grass = assay: Test B pre/postemergence surinam grass; type: in vivo, Brachiaria decumbens; details: for B. signalgrass plant response rating: scale of 0 to 10 where 0 is no effect and 10 is complete control
In short: as §1

purple nutsedge = assay: Test B pre/postemergence purple nutsedge; type: in vivo, Cyperus rotundus; details: for Nutsedge plant response rating: scale of 0 to 10 where 0 is no effect and 10 is complete control
In short: as §1

rice = assay: Test B flood test rice; type: in vivo, Oryza sativa
In short: (§2)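 Each value is a visual injury score relative to controls, with 10 meaning complete control and 0 no effect. Evaluation took place twelve to sixteen days after the 2-leaf-stage plants were treated and kept in the greenhouse.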

sugar beet = assay: Test B pre/postemergence sugar beet; type: in vivo, Beta vulgaris; details: for Sugarbeets plant response rating: scale of 0 to 10 where 0 is no effect and 10 is complete control
In short: as §1

corn = assay: Test B pre/postemergence corn; type: in vivo, Zea mays; details: for Corn plant response rating: scale of 0 to 10 where 0 is no effect and 10 is complete control
In short: as §1

pigweed = assay: Test B pre/postemergence pigweed; type: in vivo, Amaranthus retroflexus; details: for Redroot pigweed plant response rating: scale of 0 to 10 where 0 is no effect and 10 is complete control
In short: as §1

giant foxtail = assay: Test B pre/postemergence giant foxtail; type: in vivo, Setaria faberii; details: for Giant foxtail plant response rating: scale of 0 to 10 where 0 is no effect and 10 is complete control
In short: as §1

smallflower flatsedge = assay: Test B flood test smallflower flatsedge; type: in vivo, Cyperus difformis
In short: as §2

bamyardgrass = assay: Test B flood test barnyardgrass; type: in vivo, Echinochloa crus-galli
In short: as §2

rape = assay: Test B pre/postemergence rape; type: in vivo, Brassica napus; details: for Rape plant response rating: scale of 0 to 10 where 0 is no effect and 10 is complete control
In short: as §1

[1] = Postemergence, Rate 125 g/ha, scale 0 to 10, 0 is no effect, 10 is complete control
[2] = Postemergence, Rate 250 g/ha, scale 0 to 10, 0 is no effect, 10 is complete control
[3] = Preemergence, Rate 62 g/ha, scale 0 to 10 (0 no effect, 10 complete control)
[4] = Rate 500 g/ha, Postemergence, scale 0 to 10, 0 no effect, 10 complete control
[5] = Rate 62 g/ha, flood test species, Pre-emergence, visual evaluation after twelve to sixteen days
[6] = Rate 125 g/ha, under heading Pre-emergence, flood test species, visual evaluation after twelve to sixteen days
[7] = Rate 250 g/ha, Pre-emergence, flood-test species, scale 0 to 10, 0 is no effect, 10 is complete control
[8] = Rate 500 g/ha, Pre-emergence, flood test species, scale 0 to 10 (0 no effect, 10 complete control)

CC(C)N(C(=O)n1oc(=O)n(CCl)c1=O)c1ccc(F)cc1 [Compound 376]
0: Plant response rating, Wheat (wheat; [1]) | Plant response rating, Wheat (wheat; [2]) | Plant response rating, Wheat (wheat; [3]) | Wheat plant response rating (0 to 10 scale) (wheat; Preemergence, Rate 125 g/ha) | Wheat plant response rating (wheat; Preemergence, Rate 250 g/ha) | Wheat plant response rating (wheat; Preemergence, Rate 500 g/ha) | Wheat plant response rating (wheat; Rate 62 g/ha, Postemergence) | Plant response rating, Wheat (wheat; [4]) | Plant response rating, Wild oats (wild oat; [1]) | Plant response rating, Wild oats (wild oat; [2]) | Plant response rating, Wild oats (wild oat; [3]) | Wild oats plant response rating (0 to 10 scale) (wild oat; Preemergence, Rate 125 g/ha) | Wild oats plant response rating (wild oat; Preemergence, Rate 250 g/ha) | Wild oats plant response rating (wild oat; Preemergence, Rate 500 g/ha) | Wild oats plant response rating (wild oat; Rate 62 g/ha, Postemergence) | Plant response rating, Wild oats (wild oat; [4]) | Plant response rating, Blackgrass (blackgrass; [1]) | Plant response rating, Blackgrass (blackgrass; [2]) | Plant response rating, Blackgrass (blackgrass; [3]) | Blackgrass plant response rating (0 to 10 scale) (blackgrass; Preemergence, Rate 125 g/ha) | Blackgrass plant response rating (blackgrass; Preemergence, Rate 250 g/ha) | Blackgrass plant response rating (blackgrass; Preemergence, Rate 500 g/ha) | Blackgrass plant response rating (blackgrass; Rate 62 g/ha, Postemergence) | Plant response rating, Blackgrass (blackgrass; [4]) | Plant response rating, Crabgrass (crabgrass; [1]) | Plant response rating, Crabgrass (crabgrass; [2]) | Plant response rating, Crabgrass (crabgrass; [3]) | Crabgrass plant response rating (0 to 10 scale) (crabgrass; Preemergence, Rate 125 g/ha) | Crabgrass plant response rating (crabgrass; Preemergence, Rate 250 g/ha) | Crabgrass plant response rating (crabgrass; Preemergence, Rate 500 g/ha) | Crabgrass plant response rating (crabgrass; Rate 62 g/ha, Postemergence) | Plant response rating, Crabgrass (crabgrass; [4]) | Plant response rating, Morningglory (morningglory; [1]) | Plant response rating, Morningglory (morningglory; [2]) | Plant response rating, Morningglory (morningglory; [3]) | Morningglory plant response rating (0 to 10 scale) (morningglory; Preemergence, Rate 125 g/ha) | Morningglory plant response rating (morningglory; Preemergence, Rate 250 g/ha) | Morningglory plant response rating (morningglory; Preemergence, Rate 500 g/ha) | Morningglory plant response rating (morningglory; Rate 62 g/ha, Postemergence) | Plant response rating, Morningglory (morningglory; [4]) | Plant response rating, B. signalgrass (surinam grass; [1]) | Plant response rating, B. signalgrass (surinam grass; [2]) | Plant response rating, B. signalgrass (surinam grass; [3]) | B. signalgrass plant response rating (0 to 10 scale, 0 is no effect, 10 is complete control) (surinam grass; Preemergence, Rate 125 g/ha) | B. signalgrass plant response rating (surinam grass; Preemergence, Rate 250 g/ha) | B. signalgrass plant response rating (surinam grass; Preemergence, Rate 500 g/ha) | B. signalgrass plant response rating (surinam grass; Rate 62 g/ha, Postemergence) | Plant response rating, B. signalgrass (surinam grass; [4]) | Plant response rating, Nutsedge (purple nutsedge; [1]) | Plant response rating, Nutsedge (purple nutsedge; [2]) | Plant response rating, Nutsedge (purple nutsedge; [3]) | Nutsedge plant response rating (0 to 10 scale) (purple nutsedge; Preemergence, Rate 125 g/ha) | Nutsedge plant response rating (purple nutsedge; Preemergence, Rate 250 g/ha) | Nutsedge plant response rating (purple nutsedge; Preemergence, Rate 500 g/ha) | Nutsedge plant response rating (purple nutsedge; Rate 62 g/ha, Postemergence) | Plant response rating, Nutsedge (purple nutsedge; [4]) | Plant response rating, Rice (0 to 10 scale, 0 is no effect, 10 is complete control) (rice; [5]) | Rice plant response rating (0 to 10 scale, 0 is no effect, 10 is complete control) (rice; [6]) | Rice plant response rating (rice; [7]) | Rice plant response rating (rice; [8]) | Plant response rating, Sugarbeets (sugar beet; [1]) | Plant response rating, Sugarbeets (sugar beet; [2]) | Plant response rating, Sugarbeets (sugar beet; [3]) | Sugarbeets plant response rating (0 to 10 scale) (sugar beet; Preemergence, Rate 125 g/ha) | Sugarbeets plant response rating (sugar beet; Preemergence, Rate 250 g/ha) | Sugarbeets plant response rating (sugar beet; Preemergence, Rate 500 g/ha) | Sugarbeets plant response rating (sugar beet; Rate 62 g/ha, Postemergence) | Plant response rating, Sugarbeets (sugar beet; [4]) | Plant response rating, Corn (corn; [1]) | Plant response rating, Corn (corn; [2]) | Plant response rating, Corn (corn; [3]) | Corn plant response rating (0 to 10 scale) (corn; Preemergence, Rate 125 g/ha) | Corn plant response rating (corn; Preemergence, Rate 250 g/ha) | Corn plant response rating (corn; Preemergence, Rate 500 g/ha) | Corn plant response rating (corn; Rate 62 g/ha, Postemergence) | Plant response rating, Corn (corn; [4]) | Plant response rating, Redroot pigweed (pigweed; [1]) | Plant response rating, Redroot pigweed (pigweed; [2]) | Plant response rating, Redroot pigweed (pigweed; [3]) | Redroot pigweed plant response rating (0 to 10 scale) (pigweed; Preemergence, Rate 125 g/ha) | Redroot pigweed plant response rating (pigweed; Preemergence, Rate 250 g/ha) | Redroot pigweed plant response rating (pigweed; Preemergence, Rate 500 g/ha) | Redroot pigweed plant response rating (pigweed; Rate 62 g/ha, Postemergence) | Plant response rating, Redroot pigweed (pigweed; [4]) | Plant response rating, Giant foxtail (giant foxtail; [1]) | Plant response rating, Giant foxtail (giant foxtail; [2]) | Plant response rating, Giant foxtail (giant foxtail; [3]) | Giant foxtail plant response rating (0 to 10 scale) (giant foxtail; Preemergence, Rate 125 g/ha) | Giant foxtail plant response rating (giant foxtail; Preemergence, Rate 250 g/ha) | Giant foxtail plant response rating (giant foxtail; Preemergence, Rate 500 g/ha) | Giant foxtail plant response rating (giant foxtail; Rate 62 g/ha, Postemergence) | Plant response rating, Giant foxtail (giant foxtail; [4]) | Plant response rating, S. Flatsedge (0 to 10 scale, 0 is no effect, 10 is complete control) (smallflower flatsedge; [5]) | S. Flatsedge plant response rating (0 to 10 scale, 0 is no effect, 10 is complete control) (smallflower flatsedge; [6]) | S. Flatsedge plant response rating (smallflower flatsedge; [7]) | S. Flatsedge plant response rating (smallflower flatsedge; [8]) | Plant response rating, Barnyardgrass (0 to 10 scale, 0 is no effect, 10 is complete control) (bamyardgrass; [5]) | Barnyardgrass plant response rating (0 to 10 scale, 0 is no effect, 10 is complete control) (bamyardgrass; [6]) | Barnyardgrass plant response rating (bamyardgrass; [7]) | Barnyardgrass plant response rating (bamyardgrass; [8]) | Plant response rating, Rape (rape; [1]) | Plant response rating, Rape (rape; [2]) | Plant response rating, Rape (rape; [3]) | Rape plant response rating (0 to 10 scale) (rape; Preemergence, Rate 125 g/ha) | Rape plant response rating (rape; Preemergence, Rate 250 g/ha) | Rape plant response rating (rape; Preemergence, Rate 500 g/ha) | Rape plant response rating (rape; Rate 62 g/ha, Postemergence) | Plant response rating, Rape (rape; [4])
